Measurements from patent US12139492B2 (Endotarget Inc., priority 2021, dated 2024).
Read-outs that look alike come from different tables or passages of the source.

Experiments:
Mino cells = test: Antiproliferative effect, MTS cell viability assay, Mino cells; assay type: cell-based; conditions: Homo sapiens, MINO, Mino mantle cell lymphoma cells; read-out: IC50 (anti-proliferation) Mino cells
Procedure, shortened: (§1)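 Mino and JeKo-1 mantle B-cell lymphoma lines were exposed to compound at 0, 0.001, 0.01, 0.1, 1 and 10 μM for 72 h. Viability was read by MTS reduction to formazan, measured as absorbance at 490 nm.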

BTK = BTK (Homo sapiens, UniProt Q06187); test: Degradation of BTK protein in Namalwa cells (Western blot; DC50, Dmax); conditions: for DC50: cell line not given
Sequence of BTK (Q06187 whole entry): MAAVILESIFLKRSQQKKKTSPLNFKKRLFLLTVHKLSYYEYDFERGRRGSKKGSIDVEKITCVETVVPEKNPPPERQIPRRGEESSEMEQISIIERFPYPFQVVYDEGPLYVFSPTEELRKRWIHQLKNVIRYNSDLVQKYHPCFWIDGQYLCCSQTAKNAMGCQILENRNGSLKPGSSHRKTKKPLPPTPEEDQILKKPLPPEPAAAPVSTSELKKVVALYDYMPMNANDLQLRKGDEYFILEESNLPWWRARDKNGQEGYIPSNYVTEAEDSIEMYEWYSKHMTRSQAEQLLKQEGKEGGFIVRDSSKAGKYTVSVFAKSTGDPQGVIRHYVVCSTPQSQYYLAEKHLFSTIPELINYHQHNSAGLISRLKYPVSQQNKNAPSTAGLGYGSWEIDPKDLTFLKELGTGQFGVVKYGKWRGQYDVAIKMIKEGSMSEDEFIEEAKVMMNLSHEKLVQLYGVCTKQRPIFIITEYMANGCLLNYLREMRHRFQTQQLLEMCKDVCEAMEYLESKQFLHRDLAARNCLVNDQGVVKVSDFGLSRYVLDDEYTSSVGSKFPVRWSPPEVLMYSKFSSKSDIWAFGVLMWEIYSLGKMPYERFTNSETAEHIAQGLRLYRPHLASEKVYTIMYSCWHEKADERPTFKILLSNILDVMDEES

JeKo-1 cells = test: Antiproliferative effect, MTS cell viability assay, JeKo-1 cells; assay type: cell-based; conditions: Homo sapiens; JeKo-1 mantle cell lymphoma cells; read-out: IC50 (anti-proliferation) JeKO-1 cells
Procedure, shortened: as §1

[1] = read-out: DC50 (BTK degradation), concentration giving 50% reduction of BTK expression level
[2] = read-out: Dmax (BTK degradation)

| Structure (SMILES) | IC50 (Mino cells) | Dmax (BTK) | DC50 (BTK; BTK degradation) | IC50 (JeKo-1 cells) | DC50 (BTK; [1]) | Dmax (BTK; [2]) | degradation of BTK protein (BTK; Namalwa B lymphocyte cells, various concentrations, 24 hours, Western blot) |
| --- | --- | --- | --- | --- | --- | --- | --- |
| Nc1ncnc2c1c(-c1ccc(Oc3ccccc3)cc1)nn2C1CCN(C2CCN(C(=O)N3CCN(C4CCN(c5ccc6c(c5)CN(C5CCC(=O)NC5=O)C6=O)CC4)CC3)CC2)CC1 (centres unmarked) [Compound 234, 3-(5-(4-(4-(4-(4-amino-3-(4-phenoxyphenyl)-1H-pyrazolo[3,4-d]pyrimidin-1-yl)-[1,4′-bipiperidine]-1′-carbonyl)piperazin-1-yl)piperidin-1-yl)-1-oxoisoindolin-2-yl)piperidine-2,6-dione] | 1000 to 10000 nM | > 75% | 10 to 50 nM | 1000 to 10000 nM |  |  |  |
| Nc1ncnc2c1c(-c1ccc(Oc3ccccc3)cc1)nn2C1CCN(CC2CCN(CC3CCN(c4ccc(NC5CCC(=O)NC5=O)cc4)CC3)C2)CC1 (centres unmarked) [Compound 562, 3-((4-(4-((3-((4-(4-amino-3-(4-phenoxyphenyl)-1H-pyrazolo[3,4-d]pyrimidin-1-yl)piperidin-1-yl)methyl)pyrrolidin-1-yl)methyl)piperidin-1-yl)phenyl)amino)piperidine-2,6-dione] | 1000 to 10000 nM |  |  | 1000 to 10000 nM | 10 to 50 nM | > 90% |  |
| NC(=O)c1c(-c2ccc(Oc3ccccc3)cc2)nn2c1NCCC2C1CCN(CC2CCN(C(=O)N3CCN(c4ccc5c(c4)CN(C4CCC(=O)NC4=O)C5=O)CC3)CC2)CC1 (centres unmarked) [Compound 358, 7-(1-((1-(4-(2-(2,6-dioxopiperidin-3-yl)-1-oxoisoindolin-5-yl)piperazine-1-carbonyl)piperidin-4-yl)methyl)piperidin-4-yl)-2-(4-phenoxyphenyl)-4,5,6,7-tetrahydropyrazolo[1,5-a]pyrimidine-3-carboxamide] | > 10000 nM | > 50% | > 50 nM | > 10000 nM |  |  |  |
| Nc1ncnc2c1c(-c1ccc(Oc3ccccc3)cc1)nn2C1CCN(C2CCN(C(=O)N3CCC(N4CCN(c5ccc6c(c5)C(=O)N(C5CCC(=O)NC5=O)C6=O)CC4)CC3)CC2)CC1 (centres unmarked) [Compound 231, 5-(4-(1-(4-(4-amino-3-(4-phenoxyphenyl)-1H-pyrazolo[3,4-d]pyrimidin-1-yl)-[1,4′-bipiperidine]-1′-carbonyl)piperidin-4-yl)piperazin-1-yl)-2-(2,6-dioxopiperidin-3-yl)isoindoline-1,3-dione] | 1000 to 10000 nM | > 90% | 10 to 50 nM | 1000 to 10000 nM |  |  |  |
| Nc1ncnc2c1c(-c1ccc(Oc3ccccc3)cc1)nn2C1CCN(C2CCN(C(=O)N3CCC(CCC4CCN(c5ccc6c(c5)C(=O)N(C5CCC(=O)NC5=O)C6=O)CC4)CC3)CC2)CC1 (centres unmarked) [Compound 255, 5-(4-(2-(1-(4-(4-amino-3-(4-phenoxyphenyl)-1H-pyrazolo[3,4-d]pyrimidin-1-yl)-[1,4′-bipiperidine]-1′-carbonyl)piperidin-4-yl)ethyl)piperidin-1-yl)-2-(2,6-dioxopiperidin-3-yl)isoindoline-1,3-dione] | < 1000 nM | > 90% | 10 to 50 nM | 1000 to 10000 nM |  |  |  |
| Nc1ncnc2c1c(-c1ccc(Oc3ccccc3)cc1)nn2C1CCN(C2CCN(CCCCC#Cc3ccc(N4CCC(=O)NC4=O)cc3)CC2)CC1 [Compound 535, 1-(4-(6-(4-(4-amino-3-(4-phenoxyphenyl)-1H-pyrazolo[3,4-d]pyrimidin-1-yl)-[1,4′-bipiperidin]-1′-yl)hex-1-yn-1-yl)phenyl)dihydropyrimidine-2,4(1H,3H)-dione] | > 10000 nM |  |  | > 10000 nM | > 50 nM | > 50% |  |
| Nc1ncnc2c1c(-c1ccc(Oc3ccccc3)cc1)nn2C1CCN(C(=O)C2CN(C3CCN(c4ccc5c(c4)CN(C4CCC(=O)NC4=O)C5=O)CC3)C2)CC1 (centres unmarked) [Compound 510, 3-(5-(4-(3-(4-(4-amino-3-(4-phenoxyphenyl)-1H-pyrazolo[3,4-d]pyrimidin-1-yl)piperidine-1-carbonyl)azetidin-1-yl)piperidin-1-yl)-1-oxoisoindolin-2-yl)piperidine-2,6-dione] | < 1000 nM |  |  | < 1000 nM | < 10 nM | > 90% |  |
| Nc1ncnc2c1c(-c1ccc(Oc3ccccc3)cc1)nn2C1CCN(C2CCN(CCN3CCN(c4ccc(N5CCC(=O)NC5=O)cc4)CC3)CC2)CC1 [Compound 570, 1-(4-(4-(2-(4-(4-amino-3-(4-phenoxyphenyl)-1H-pyrazolo[3,4-d]pyrimidin-1-yl)-[1,4′-bipiperidin]-1′-yl)ethyl)piperazin-1-yl)phenyl)dihydropyrimidine-2,4(1H,3H)-dione] | 1000 to 10000 nM |  |  | 1000 to 10000 nM | 10 to 50 nM | > 90% |  |
| Nc1ncnc2c1c(-c1ccc(Oc3ccccc3)cc1)nn2C1CCN(CC2CCN(CCCC3CCN(c4ccc5c(c4)CN(C4CCC(=O)NC4=O)C5=O)CC3)CC2)CC1 (centres unmarked) [Compound 212, 3-(5-(4-(3-(4-((4-(4-amino-3-(4-phenoxyphenyl)-1H-pyrazolo[3,4-d]pyrimidin-1-yl)piperidin-1-yl)methyl)piperidin-1-yl)propyl)piperidin-1-yl)-1-oxoisoindolin-2-yl)piperidine-2,6-dione] | 1000 to 10000 nM | > 90% | 10 to 50 nM | > 10000 nM |  |  |  |
| NC(=O)c1c(-c2ccc(Oc3ccccc3)cc2)nn2c1NCCC2C1CCN(C(=O)N2CCN(CCN3CCC(c4ccc5c(c4)CN(C4CCC(=O)NC4=O)C5=O)CC3)CC2)CC1 (centres unmarked) [Compound 288, 7-(1-(4-(2-(4-(2-(2,6-dioxopiperidin-3-yl)-1-oxoisoindolin-5-yl)piperidin-1-yl)ethyl)piperazine-1-carbonyl)piperidin-4-yl)-2-(4-phenoxyphenyl)-4,5,6,7-tetrahydropyrazolo[1,5-a]pyrimidine-3-carboxamide] | 1000 to 10000 nM | > 75% | 10 to 50 nM | 1000 to 10000 nM |  |  |  |
| Nc1ncnc2c1c(-c1ccc(Oc3ccccc3)cc1)nn2C1CCN(CCN2CCC(CSc3ccc4c(c3)C(=O)N(C3CCC(=O)NC3=O)C4=O)C2)CC1 (centres unmarked) [Compound 473, 5-(((1-(2-(4-(4-amino-3-(4-phenoxyphenyl)-1H-pyrazolo[3,4-d]pyrimidin-1-yl)piperidin-1-yl)ethyl)pyrrolidin-3-yl)methyl)thio)-2-(2,6-dioxopiperidin-3-yl)isoindoline-1,3-dione] | 1000 to 10000 nM |  |  | 1000 to 10000 nM | 10 to 50 nM | > 90% |  |
| Nc1ncnc2c1c(-c1ccc(Oc3ccccc3)cc1)nn2C1CCN(CC2CCN(CC3CCN(c4ccc(NC5CCC(=O)NC5=O)cc4)CC3)CC2)CC1 (centres unmarked) [Compound 557, 3-((4-(4-((4-((4-(4-amino-3-(4-phenoxyphenyl)-1H-pyrazolo[3,4-d]pyrimidin-1-yl)piperidin-1-yl)methyl)piperidin-1-yl)methyl)piperidin-1-yl)phenyl)amino)piperidine-2,6-dione] | < 1000 nM |  |  | < 1000 nM | < 10 nM | > 90% |  |
| Nc1ncnc2c1c(-c1ccc(Oc3ccccc3)cc1)nn2C1CCN(C[C@H]2CCN(CC3CCN(c4ccc5c(c4)C(=O)N(C4CCC(=O)NC4=O)C5=O)CC3)C2)CC1 (stereo partly drawn) [Compound 445a, 5-(4-(((R)-3-((4-(4-amino-3-(4-phenoxyphenyl)-1H-pyrazolo[3,4-d]pyrimidin-1-yl)piperidin-1-yl)methyl)pyrrolidin-1-yl)methyl)piperidin-1-yl)-2-(2,6-dioxopiperidin-3-yl)isoindoline-1,3-dione] | 1000 to 10000 nM |  |  | 1000 to 10000 nM | 10 to 50 nM | > 90% |  |
| Nc1ncnc2c1c(-c1ccc(Oc3ccccc3)cc1)nn2C1CCN(CCOCCOCCN2CC=C(c3ccc4c(c3)CN(C3CCC(=O)NC3=O)C4=O)CC2)CC1 (centres unmarked) [Compound 417, 3-(5-(1-(2-(2-(2-(4-(4-amino-3-(4-phenoxyphenyl)-1H-pyrazolo[3,4-d]pyrimidin-1-yl)piperidin-1-yl)ethoxy)ethoxy)ethyl)-1,2,3,6-tetrahydropyridin-4-yl)-1-oxoisoindolin-2-yl)piperidine-2,6-dione] | 1000 to 10000 nM |  |  | 1000 to 10000 nM | 10 to 50 nM | > 75% | dose-dependent degradation |
| Nc1ncnc2c1c(-c1ccc(Oc3ccccc3)cc1)nn2C1CCN(C2CCN(C(=O)N3CCC(CCN4CCC(c5ccc6c(c5)C(=O)N(C5CCC(=O)NC5=O)C6=O)CC4)CC3)CC2)CC1 (centres unmarked) [Compound 253, 5-(1-(2-(1-(4-(4-amino-3-(4-phenoxyphenyl)-1H-pyrazolo[3,4-d]pyrimidin-1-yl)-[1,4′-bipiperidine]-1′-carbonyl)piperidin-4-yl)ethyl)piperidin-4-yl)-2-(2,6-dioxopiperidin-3-yl)isoindoline-1,3-dione] | 1000 to 10000 nM | > 90% | 10 to 50 nM | 1000 to 10000 nM |  |  |  |
| Nc1ncnc2c1c(-c1ccc(Oc3ccccc3)cc1)nn2C1CCN([C@H]2CCN(CC3CN(c4ccc5c(c4)C(=O)N(C4CCC(=O)NC4=O)C5=O)C3)C2)CC1 (stereo partly drawn) [Compound 425b, 5-(3-(((S)-3-(4-(4-amino-3-(4-phenoxyphenyl)-1H-pyrazolo[3,4-d]pyrimidin-1-yl)piperidin-1-yl)pyrrolidin-1-yl)methyl)azetidin-1-yl)-2-(2,6-dioxopiperidin-3-yl)isoindoline-1,3-dione] | 1000 to 10000 nM |  |  | 1000 to 10000 nM |  | > 90% |  |
| NC(=O)c1c(-c2ccc(Oc3ccccc3)cc2)nn2c1NCC[C@H]2C1CCN(CC2CCN(CCN3CCN(c4ccc5c(c4)CN(C4CCC(=O)NC4=O)C5=O)CC3)CC2)CC1 (stereo partly drawn) [Compound 332, (7S)-7-(1-((1-(2-(4-(2-(2,6-dioxopiperidin-3-yl)-1-oxoisoindolin-5-yl)piperazin-1-yl)ethyl)piperidin-4-yl)methyl)piperidin-4-yl)-2-(4-phenoxyphenyl)-4,5,6,7-tetrahydropyrazolo[1,5-a]pyrimidine-3-carboxamide] | 1000 to 10000 nM | > 75% | > 50 nM | 1000 to 10000 nM |  |  |  |
